Numbers after ± are expanded uncertainties.
Assay: wn = mass fraction of the nth substance listed
Settings: Liquid; for mass density: Vibrating tube method; for viscosity: Falling or rolling sphere viscometry

c1ccc2c(c1)CCCC2 [1,2,3,4-tetrahydronaphthalene] + CCCCCCCCCCCC
Settings	mass density [kg/m3]	viscosity [mPa·s]
293.15 K, 100 kPa, w2 = 0.5	844.4 ± 1	–
293.15 K, 2000 kPa, w2 = 0.5	845.7 ± 1	–
293.15 K, 4000 kPa, w2 = 0.5	846.8 ± 1	–
293.15 K, 6000 kPa, w2 = 0.5	848 ± 1	–
293.15 K, 8000 kPa, w2 = 0.5	849.5 ± 1	–
293.15 K, 10000 kPa, w2 = 0.5	850.8 ± 1	–
293.15 K, 12000 kPa, w2 = 0.5	851.9 ± 1	–
293.15 K, 14000 kPa, w2 = 0.5	853.1 ± 1	–
293.15 K, 16000 kPa, w2 = 0.5	854.2 ± 1	–
293.15 K, 18000 kPa, w2 = 0.5	855.4 ± 1	–
293.15 K, 20000 kPa, w2 = 0.5	856.6 ± 1.1	–
295.65 K, 100 kPa, w2 = 0.5	842.4 ± 1	–
295.65 K, 2000 kPa, w2 = 0.5	843.6 ± 1	–
295.65 K, 4000 kPa, w2 = 0.5	844.9 ± 1	–
295.65 K, 6000 kPa, w2 = 0.5	846 ± 1	–
295.65 K, 8000 kPa, w2 = 0.5	847.4 ± 1	–
295.65 K, 10000 kPa, w2 = 0.5	848.6 ± 1	–
295.65 K, 12000 kPa, w2 = 0.5	849.8 ± 1	–
295.65 K, 14000 kPa, w2 = 0.5	851 ± 1	–
295.65 K, 16000 kPa, w2 = 0.5	852.1 ± 1	–
295.65 K, 18000 kPa, w2 = 0.5	853.3 ± 1	–
295.65 K, 20000 kPa, w2 = 0.5	854.4 ± 1.1	–
298.15 K, 100 kPa, w1 = 0.48	835.7 ± 1	–
298.15 K, 100 kPa, w1 = 0.49	838.4 ± 1	–
298.15 K, 100 kPa, w1 = 0.5	840.7 ± 1	–
298.15 K, 100 kPa, w1 = 0.51	842.7 ± 1	–
298.15 K, 100 kPa, w1 = 0.52	844.8 ± 1	–
298.15 K, 100 kPa, w2 = 0.5	840.7 ± 1	1.46 ± 0.06
298.15 K, 2000 kPa, w1 = 0.48	836.9 ± 1	–
298.15 K, 2000 kPa, w1 = 0.49	839.7 ± 1	–
298.15 K, 2000 kPa, w1 = 0.5	842 ± 1	–
298.15 K, 2000 kPa, w1 = 0.51	844 ± 1	–
298.15 K, 2000 kPa, w1 = 0.52	846.1 ± 1	–
298.15 K, 2000 kPa, w2 = 0.5	842 ± 1	–
298.15 K, 4000 kPa, w1 = 0.48	838.3 ± 1	–
298.15 K, 4000 kPa, w1 = 0.49	841 ± 1	–
298.15 K, 4000 kPa, w1 = 0.5	843.4 ± 1	–
298.15 K, 4000 kPa, w1 = 0.51	845.3 ± 1	–
298.15 K, 4000 kPa, w1 = 0.52	847.5 ± 1	–
298.15 K, 4000 kPa, w2 = 0.5	843.4 ± 1	1.53 ± 0.06
298.15 K, 6000 kPa, w1 = 0.48	839.6 ± 1	–
298.15 K, 6000 kPa, w1 = 0.49	842.2 ± 1	–
298.15 K, 6000 kPa, w1 = 0.5	844.7 ± 1	–
298.15 K, 6000 kPa, w1 = 0.51	846.5 ± 1	–
298.15 K, 6000 kPa, w1 = 0.52	848.7 ± 1	–
298.15 K, 6000 kPa, w2 = 0.5	844.7 ± 1	–
298.15 K, 8000 kPa, w1 = 0.48	840.9 ± 1	–
298.15 K, 8000 kPa, w1 = 0.49	843.5 ± 1	–
298.15 K, 8000 kPa, w1 = 0.5	845.9 ± 1	–
298.15 K, 8000 kPa, w1 = 0.51	847.8 ± 1	–
298.15 K, 8000 kPa, w1 = 0.52	849.9 ± 1	–
298.15 K, 8000 kPa, w2 = 0.5	845.9 ± 1	–
298.15 K, 10000 kPa, w1 = 0.48	842.1 ± 1	–
298.15 K, 10000 kPa, w1 = 0.49	844.7 ± 1	–
298.15 K, 10000 kPa, w1 = 0.5	847.1 ± 1	–
298.15 K, 10000 kPa, w1 = 0.51	848.8 ± 1	–
298.15 K, 10000 kPa, w1 = 0.52	851.1 ± 1	–
298.15 K, 10000 kPa, w2 = 0.5	847.1 ± 1	1.64 ± 0.07
298.15 K, 12000 kPa, w1 = 0.48	843.3 ± 1	–
298.15 K, 12000 kPa, w1 = 0.49	845.9 ± 1	–
298.15 K, 12000 kPa, w1 = 0.5	848.4 ± 1	–
298.15 K, 12000 kPa, w1 = 0.51	850.3 ± 1	–
298.15 K, 12000 kPa, w1 = 0.52	852.2 ± 1	–
298.15 K, 12000 kPa, w2 = 0.5	848.4 ± 1	–
298.15 K, 14000 kPa, w1 = 0.48	844.6 ± 1.1	–
298.15 K, 14000 kPa, w1 = 0.49	847.1 ± 1	–
298.15 K, 14000 kPa, w1 = 0.5	849.5 ± 1	–
298.15 K, 14000 kPa, w1 = 0.51	851.5 ± 1	–
298.15 K, 14000 kPa, w1 = 0.52	853.5 ± 1	–
298.15 K, 14000 kPa, w2 = 0.5	849.5 ± 1	–
298.15 K, 16000 kPa, w1 = 0.48	845.7 ± 1.1	–
298.15 K, 16000 kPa, w1 = 0.49	848.3 ± 1.1	–
298.15 K, 16000 kPa, w1 = 0.5	850.7 ± 1.1	–
298.15 K, 16000 kPa, w1 = 0.51	852.7 ± 1	–
298.15 K, 16000 kPa, w1 = 0.52	854.6 ± 1	–
298.15 K, 16000 kPa, w2 = 0.5	850.7 ± 1	–
298.15 K, 18000 kPa, w1 = 0.48	846.9 ± 1.1	–
298.15 K, 18000 kPa, w1 = 0.49	849.3 ± 1.1	–
298.15 K, 18000 kPa, w1 = 0.5	851.9 ± 1.1	–
298.15 K, 18000 kPa, w1 = 0.51	853.8 ± 1.1	–
298.15 K, 18000 kPa, w1 = 0.52	855.7 ± 1.1	–
298.15 K, 18000 kPa, w2 = 0.5	851.9 ± 1	–
298.15 K, 20000 kPa, w1 = 0.48	848.1 ± 1.1	–
298.15 K, 20000 kPa, w1 = 0.49	850.6 ± 1.1	–
298.15 K, 20000 kPa, w1 = 0.5	853 ± 1.1	–
298.15 K, 20000 kPa, w1 = 0.51	855 ± 1.1	–
298.15 K, 20000 kPa, w1 = 0.52	857 ± 1.1	–
298.15 K, 20000 kPa, w2 = 0.5	853 ± 1.1	–
300.65 K, 100 kPa, w2 = 0.5	838.8 ± 1	–
300.65 K, 2000 kPa, w2 = 0.5	840 ± 1	–
300.65 K, 4000 kPa, w2 = 0.5	841.3 ± 1	–
300.65 K, 6000 kPa, w2 = 0.5	842.5 ± 1	–
300.65 K, 8000 kPa, w2 = 0.5	843.8 ± 1	–
300.65 K, 10000 kPa, w2 = 0.5	845 ± 1	–
300.65 K, 12000 kPa, w2 = 0.5	846.3 ± 1	–
300.65 K, 14000 kPa, w2 = 0.5	847.5 ± 1	–
300.65 K, 16000 kPa, w2 = 0.5	848.8 ± 1	–
300.65 K, 18000 kPa, w2 = 0.5	849.9 ± 1	–
300.65 K, 20000 kPa, w2 = 0.5	851 ± 1.1	–
303.15 K, 100 kPa, w2 = 0.5	837.3 ± 1	–
303.15 K, 2000 kPa, w2 = 0.5	838.5 ± 1	–
303.15 K, 4000 kPa, w2 = 0.5	839.9 ± 1	–
303.15 K, 6000 kPa, w2 = 0.5	841.1 ± 1	–
303.15 K, 8000 kPa, w2 = 0.5	842.4 ± 1	–
303.15 K, 10000 kPa, w2 = 0.5	843.6 ± 1	–
303.15 K, 12000 kPa, w2 = 0.5	844.9 ± 1	–
303.15 K, 14000 kPa, w2 = 0.5	846.1 ± 1	–
303.15 K, 16000 kPa, w2 = 0.5	847.5 ± 1	–
303.15 K, 18000 kPa, w2 = 0.5	848.7 ± 1	–
303.15 K, 20000 kPa, w2 = 0.5	849.8 ± 1.1	–

— the NIST ThermoML archive (doi:10.1021/je8008073)
